Assay results as given in patent US10028971B2, “Compositions and methods for treating psychiatric disorders” (GOSFORTH CENTRE (HOLDINGS) PTY LTD., priority 2008, dated 2018).
Structures can show the parent of a compound that is named as a salt.

Test system: mood stabilisation or epileptic symptoms or events
Experiment: not given
Details: in vivo; cited from earlier work

| Structure (SMILES) | typical dose for treating epileptic seizures |
| --- | --- |
| NC(=O)N1c2ccccc2C=Cc2ccccc21 [Carbamazepine] | 400 to 800 mg/day |

Same assay, conditions: usual minimum anti-convulsant dose per day; cited from earlier work

| Structure (SMILES) | Minimum Dose/day effective for mood stabilisation or treatment of epileptic symptoms or events |
| --- | --- |
| Nc1nnc(-c2cccc(Cl)c2Cl)c(N)n1 [Lamotrigine, 3,5-diamino-6-(2,3-dichlorophenyl)-1,2,4-triazine] | 100 mg |
| O=C1CN=C(c2ccccc2Cl)c2cc([N+](=O)[O-])ccc2N1 [Clonazepam] | 1 mg |
| NC(=O)OCC(COC(N)=O)c1ccccc1 [Felbamate] | 1200 mg |
| NCC1(CC(=O)O)CCCCC1 [Gabapentin, 2-[1-(aminomethyl)cyclohexyl]acetic acid] | 900 mg |
| NS(=O)(=O)Cc1noc2ccccc12 [Zonisamide] | 200 mg |
| N#Cc1ccccc1-c1cc(-c2ccccn2)cn(-c2ccccc2)c1=O [Perampanel] | 2 mg |
| CCN1C(=O)NC(c2ccccc2)C1=O (stereo not shown) [Ethotoin] | 1000 mg |
| COC[C@@H](NC(C)=O)C(=O)NCc1ccccc1 [Lacosamide] | 200 mg |
| CCN1C(=O)OC(C)(C)C1=O [Ethadione] | 1000 mg |
| CC[C@@H](C(N)=O)N1CCCC1=O [Levetiracetam] | 1000 mg |
| CCC1(c2ccccc2)NC(=O)N(C)C1=O (stereo not shown) [Mephenytoin] | 200 mg |
| CN1C(=O)CC(C)(c2ccccc2)C1=O (stereo not shown) [Methsuximide] | 300 mg |
| COC1=CC(=O)OC1C(O)c1ccccc1Cl (stereo not shown) [Losigamone] | 1500 mg |
| CC(C)C[C@H](CN)CC(=O)O [Pregabalin, (S)-3-(aminomethyl)-5-methylhexanoic acid] | 300 mg |
| NS(=O)(=O)c1ccc(N2CCCCS2(=O)=O)cc1 [Sultiame] | 200 mg |
| CCC1(C)CC(=O)NC1=O (stereo not shown) [Ethosuximide] | 1000 mg |

| Structure (SMILES) | Minimum Dose/day effective for mood stabilisation or treatment of epileptic symptoms or events |
| --- | --- |
| CCC(C(=O)NC(N)=O)c1ccccc1 (stereo not shown) [Pheneturide] | 600 mg |
| CCC1(c2ccc(N)cc2)CCC(=O)NC1=O (stereo not shown) [Aminoglutethimide] | 125 mg |
| CN1C(=O)CC(c2ccccc2)C1=O (stereo not shown) [Phensuximide] | 1000 mg |
| CCC1(C)OC(=O)N(C)C1=O (stereo not shown) [Paramethadione] | 300 mg |
| Cc1ccsc1C(=CCCN1CCC[C@@H](C(=O)O)C1)c1sccc1C [Tiagabine Hydrochloride] | 30 mg |
| O=C1NC(c2ccccc2)(c2ccccc2)C(=O)N1COP(=O)(O)O [Fosphenytoin Sodium] | 10 mg/kg |
| C=CC(N)CCC(=O)O (stereo not shown) [Vigabatrin] | 1000 mg |
| CCC1(c2ccccc2)C(=O)NC(=O)NC1=O.CNC(C)CC1CCCCC1 [Barbexaclone] | 200 mg in divided doses |
| NC(=O)NC(=O)Cc1ccccc1 [Phenacemide] | 500 mg |
| CCC1(c2ccccc2)NC(=O)N(C)C1=O (stereo not shown) [Methoin] | 1000 mg |
| CCC1(c2ccccc2)C(=O)NCNC1=O [Primidone] | 750 mg |
| CCC[C@@H]1CC(=O)N([C@@H](CC)C(N)=O)C1 [Brivaracetam] | 100 mg |
| NC(=O)N1c2ccccc2CC(=O)c2ccccc21 [Oxcarbazepine] | 600 mg |
| NC(=O)N1c2ccccc2C=Cc2ccccc21 [Carbamazepine] | 400 mg |
| CN1C(=O)OC(C)(C)C1=O [Trimethadione] | 900 mg |

Same assay, conditions: usual minimum anti-convulsant dose; cited from earlier work

| Structure (SMILES) | Minimum Dose/day effective for mood stabilisation or treatment of epileptic symptoms or events |
| --- | --- |
| CN1C(=O)CC(=O)N(c2ccccc2)c2cc(Cl)ccc21 [Clobazam] | 5 mg/kg daily |

Test system: adults with ADHD
Experiment: not given
Details: person, ADHD; 37.5 mg oxycarbamazepine added to dexamphetamine 40 mg and 'sodium to operate' 400 mg daily
Experimental: In the clinical setting a number of adults with ADHD experienced a combination therapy of stimulant medication (dexamphetamine) in combination with sodium valproate (VPA). The initial dosages used were from 15 to 70 mg/day of dexamphetamine and from 100 to 700 mg/day of VPA (Epilim) (=approximately 2 to 10 mg/kg/day).
The determination of the dose for the dexamphetamine was undertaken in a clinical sensitive open label manner. The dose was titrated upwards dependent on the clinical response and the freedom from side-effects. The dose range was between 15 and 70 mg a day. The frequency of the dosing also varied dependent upon the clinical response. The usual dose interval was between two to four hours. This dosing adjustment took place prior to the commencement of the sodium valproate. The sodium valproate medication was initiated once a day at 50 mg tablet or elixir and titrated upwards dependent on response, but not more than one increase every three days. The dose was given as a once or twice a day regime. During the titration phase, if clinically possible, no other adjustments to the pharmacotherapy were undertaken.

| Structure (SMILES) | clinical outcome (case) |
| --- | --- |
| NC(=O)N1c2ccccc2CC(=O)c2ccccc21 [Oxcarbazepine] | significant improvement in their cognitive functioning |

Same assay, conditions: person; oxycarbamazepine dose increased to 75 mg

| Structure (SMILES) | clinical outcome (case) |
| --- | --- |
| NC(=O)N1c2ccccc2CC(=O)c2ccccc21 [Oxcarbazepine] | improved again |

Same assay, conditions: person; switched to carbamazepine

| Structure (SMILES) | clinical outcome (case), compared with oxycarbamazepine |
| --- | --- |
| NC(=O)N1c2ccccc2C=Cc2ccccc21 [Carbamazepine] | less effective |

Test system: individuals with developmental dyspraxia / poor coordination
Experiment: Treatment of developmental dyspraxia, clinical observation
Assay type: in vivo, human
Details: person, ADHD; dexamphetamine 25 mg daily augmented with atomexetine 60 mg and sodium valproate 150 mg
Source text: Many of the individuals treated at this clinic, with a diagnosis of ADHD and/or pervasive development disorder such Asperger's Syndrome or autism also present with symptoms consistent with a diagnosis of a developmental coordination disorder. They are often described as ‘unco’ (unco-ordinated) by their peers and experience victimization, poor self-esteem and frustration as a consequence of their poor coordination. […] Individuals have described a sense of having more time to coordinate movements and to understand and integrate their own activity appropriately within a team sport such as soccer, which has previously eluded them. Individuals have felt frustration at being able to practise repeatedly an activity or skill only to be unable to put it into practice when required, within the play of a match. It is proposed that individuals were previously unable to process and plan their own coordination but remain aware of the general activity in which they were participating.

| Structure (SMILES) | clinical outcome (case) |
| --- | --- |
| CNCC[C@@H](Oc1ccccc1C)c1ccccc1 [atomexetine, (3R)—N-methyl-3-(2-methylphenoxy)-3-phenyl-propan-1-amine] | Significant improvement in psychosocial functioning |
